Results as given in US12624309B2, “Enol ether properfume” (Firmenich SA, priority 2020, dated 2026).

Assay: Acid-catalyzed hydrolysis of enol ethers in THF/1 M HCl, percent remaining by GC-FID
Assay type: physicochemical
Details: for percent remaining, 24 h / percent remaining, 48 h / percent remaining, 72 h / percent remaining, 168 h / percent remaining, 336 h / percent remaining, 504 h / percent remaining, 672 h / percent remaining, initial / rate of hydrolysis / hydrolytic stability compared to corresponding enol ethers prepared from alkyl alcohols: THF/1M HCl (80:20 v/v); for percent remaining, 24 h / percent remaining, 48 h / percent remaining, 72 h / percent remaining, 168 h / percent remaining, 336 h / percent remaining, 504 h / percent remaining, 672 h / percent remaining, initial: room temperature; for percent remaining, initial: time zero; for enol ether remained after 504 h (21 days): Table 1, THF/1M HCl; for rate of hydrolysis / hydrolytic stability compared to corresponding enol ethers prepared from alkyl alcohols: in words
Method: Each enol ether was dissolved in a 4:1 THF/1 M HCl mixture and the percent remaining over time measured relative to an internal standard.
After mixing, 2 mL of this solution were removed with a volumetric pipet and used to obtain the time zero measurement. 2 mL of 1 M HCl were mixed with the remaining 8 mL of the THF solution. This mixture was divided into 5 mL vials (1 mL per vial). The vials were gently topped with nitrogen and fitted with screw caps around which parafilm was wrapped. The vials were stored at room temperature until analyzed. For analyses, 2 mL of ethyl acetate was added to a vial and mixed. After phase separation, the top phase was collected and washed with saturated sodium carbonate (1 mL). Samples of the organic phase were analyzed by GC-FID. For the time zero sample, 0.5 mL of deionized water was added to the 2 mL taken from the original THF solution. 1 mL of this solution was added to a 5 mL vial and diluted with 2 mL of ethyl acetate and mixed. The top phase was collected and washed with saturated sodium carbonate (1 mL). The top phase then was analyzed by GC-FID. The percent of enol ether remaining was determined by dividing the peak area ratio of the enol ether to internal standard by the ratio measured at time zero.

CC/C=C\CCOC(=O)C(C)OC=Cc1ccccc1 (racemic) [Compound 39, (±)-(Z)-hex-3-en-1-yl 2-(styryloxy)propanoate]
percent remaining, 24 h: 96.3% | percent remaining, 48 h: 95.3% | percent remaining, 72 h: 90.7% | percent remaining, 168 h: 79.6% | percent remaining, 336 h: 67.3% | percent remaining, 504 h: 53.0% | percent remaining, 672 h: 41.2% | percent remaining, initial: 100%

CC(OC=Cc1ccccc1)C(=O)OCCc1ccccc1 (racemic) [Compound 40, (±)-phenethyl 2-(styryloxy)propanoate]
percent remaining, 24 h: 97.3% | percent remaining, 48 h: 95.0% | percent remaining, 72 h: 91.8% | percent remaining, 168 h: 78.5% | percent remaining, 336 h: 59.0% | percent remaining, 504 h: 53.0% | percent remaining, 672 h: 41.4% | percent remaining, initial: 100%

CCCCCC(CC)OC(=O)C(C)OC=Cc1ccccc1 (racemic) [Compound 41, (±)-octan-3-yl 2-(styryloxy)propanoate]
percent remaining, 24 h: 99.7% | percent remaining, 48 h: 99.2% | percent remaining, 72 h: 98.1% | percent remaining, 168 h: 94.1% | percent remaining, 336 h: 91.7% | percent remaining, 504 h: 88.4% | percent remaining, 672 h: 84.4% | percent remaining, initial: 100%

CC/C=C\CCOC(=O)C(C)OC=Cc1ccc(OC)cc1 (racemic) [Compound 42, (±)-(Z)-hex-3-en-1-yl 2-((4-methoxystyryl)oxy)propanoate]
percent remaining, 24 h: 95.1% | percent remaining, 48 h: 93.9% | percent remaining, 72 h: 89.8% | percent remaining, 168 h: 78.1% | percent remaining, 336 h: 60.1% | percent remaining, 504 h: 46.8% | percent remaining, 672 h: 35.2% | percent remaining, initial: 100% | enol ether remained after 504 h (21 days): 46.8%

CCCCCC(CC)OC(=O)C(C)OC=C(C)c1ccccc1 (racemic) [Compound 44, (±)-octan-3-yl 2-((2-phenylprop-1-en-1-yl)oxy)propanoate]
rate of hydrolysis / hydrolytic stability compared to corresponding enol ethers prepared from alkyl alcohols: improved hydrolytic stability | percent remaining, 24 h: 99.3% | percent remaining, 48 h: 99.5% | percent remaining, 72 h: 98.9% | percent remaining, 168 h: 96.5% | percent remaining, 336 h: 93.3% | percent remaining, 504 h: 90.4% | percent remaining, 672 h: 88.6% | percent remaining, initial: 100%

CCC(C)OC(=O)C(C)OC=C(C)c1ccc(C)cc1 (racemic) [Compound 46, (±)-sec-butyl 2-((2-(p-tolyl)prop-1-en-1-yl)oxy)propanoate]
rate of hydrolysis / hydrolytic stability compared to corresponding enol ethers prepared from alkyl alcohols: Slower rates of hydrolysis | percent remaining, 24 h: 98.0% | percent remaining, 48 h: 97.0% | percent remaining, 72 h: 95.8% | percent remaining, 168 h: 90.9% | percent remaining, 336 h: 82.4% | percent remaining, 504 h: 74.5% | percent remaining, 672 h: 66.6% | percent remaining, initial: 100%

CC/C=C\CCOC(=O)C(C)OC=C(C)c1ccc(OC)cc1 (racemic) [Compound 47, (±)-(Z)-hex-3-en-1-yl 2-((2-(4-methoxyphenyl)prop-1-en-1-yl)oxy)propanoate]
percent remaining, 24 h: 96.6% | percent remaining, 48 h: 94.4% | percent remaining, 72 h: 91.2% | percent remaining, 168 h: 81.6% | percent remaining, 336 h: 65.0% | percent remaining, 504 h: 51.1% | percent remaining, 672 h: 40.0% | percent remaining, initial: 100%

CCC(C)OC(=O)C(C)OC=C(C)c1ccc(OC)cc1 (racemic) [Compound 49, (±)-sec-butyl 2-((2-(4-methoxyphenyl)prop-1-en-1-yl)oxy)propanoate]
percent remaining, 24 h: 96.8% | percent remaining, 48 h: 94.8% | percent remaining, 72 h: 93.8% | percent remaining, 168 h: 87.6% | percent remaining, 336 h: 76.9% | percent remaining, 504 h: 67.6% | percent remaining, 672 h: 56.2% | percent remaining, initial: 100%

CC(=COCCc1ccccc1)c1ccc(C)cc1 [1-methyl-4-(1-phenethoxyprop-1-en-2-yl)benzene, reference compound]
percent remaining, 24 h: 97.8% | percent remaining, 48 h: 95.5% | percent remaining, 72 h: 93.9% | percent remaining, 168 h: 85.0% | percent remaining, 336 h: 70.4% | percent remaining, 504 h: 57.3% | percent remaining, 672 h: 42.5% | percent remaining, initial: 100%

CC(=COC(C)(C)CCCC(C)C)c1ccccc1 [(1-(2,6-dimethylheptan-2-yloxy)prop-1-en-2-yl)benzene, reference compound]
percent remaining, 24 h: 92.9% | percent remaining, 48 h: 85.7% | percent remaining, 72 h: 80.5% | percent remaining, 168 h: 60.3% | percent remaining, 336 h: 41.7% | percent remaining, 504 h: 28.1% | percent remaining, 672 h: 17.9% | percent remaining, initial: 100%

CCCCCC(CC)OC=C(C)c1ccccc1 (centres unmarked) [(1-(octan-3-yloxy)prop-1-en-2-yl)benzene, reference compound]
percent remaining, 24 h: 96.2% | percent remaining, 48 h: 92.4% | percent remaining, 72 h: 89.3% | percent remaining, 168 h: 76.6% | percent remaining, 336 h: 57.3% | percent remaining, 504 h: 44.5% | percent remaining, 672 h: 33.6% | percent remaining, initial: 100%

CC(=COCCc1ccccc1)c1ccccc1 [(1-phenethoxyprop-1-en-2-yl)benzene, reference compound]
percent remaining, 24 h: 98.4% | percent remaining, 48 h: 96.5% | percent remaining, 72 h: 93.8% | percent remaining, 168 h: 86.1% | percent remaining, 336 h: 72.7% | percent remaining, 504 h: 59.0% | percent remaining, 672 h: 43.7% | percent remaining, initial: 100%

CCCCCC(CC)OC=Cc1ccccc1 (centres unmarked) [(2-(octan-3-yloxy)vinyl)benzene, reference compound]
percent remaining, 24 h: 84.9% | percent remaining, 48 h: 72.0% | percent remaining, 72 h: 61.7% | percent remaining, 168 h: 33.6% | percent remaining, 336 h: 10% | percent remaining, 504 h: 4.5% | percent remaining, 672 h: 0% | percent remaining, initial: 100% | enol ether remained after 504 h (21 days): 4.5%

C(=Cc1ccccc1)OCCc1ccccc1 [(2-phenethoxyvinyl)benzene, reference compound]
percent remaining, 24 h: 94.6% | percent remaining, 48 h: 90.0% | percent remaining, 72 h: 83.7% | percent remaining, 168 h: 66.4% | percent remaining, 336 h: 45.2% | percent remaining, 504 h: 35.9% | percent remaining, 672 h: 25.0% | percent remaining, initial: 100% | enol ether remained after 504 h (21 days): 39.5%

COC(=O)C(C)(C)OC=Cc1ccccc1 [Compound 10, methyl 2-methyl-2-(styryloxy)propanoate]
percent remaining, 24 h: 97.2% | percent remaining, 48 h: 95.3% | percent remaining, 72 h: 93.7% | percent remaining, 168 h: 86.0% | percent remaining, 336 h: 77% | percent remaining, 504 h: 70.8% | percent remaining, 672 h: 64.1% | percent remaining, initial: 100%

COC(=O)C(C)(C)OC=C(C)c1ccccc1 [Compound 25, methyl 2-methyl-2-((2 phenylprop-1-en-1-yl)oxy)propanoate]
rate of hydrolysis / hydrolytic stability compared to corresponding enol ethers prepared from alkyl alcohols: improved hydrolytic stability | percent remaining, 72 h: 100% | percent remaining, 168 h: 98.1% | percent remaining, 336 h: 93.6% | percent remaining, 504 h: 90.0% | percent remaining, 672 h: 89.6% | percent remaining, initial: 100%

COC(=O)C(C)(C)OC=C(C)c1ccc(OC)cc1 [Compound 27, methyl 2-((2-(4-methoxyphenyl)prop-1-en-1-yl)oxy)-2-methylpropanoate]
percent remaining, 24 h: 102% | percent remaining, 48 h: 101% | percent remaining, 72 h: 99.7% | percent remaining, 168 h: 97.8% | percent remaining, 336 h: 87.7% | percent remaining, 504 h: 89.1% | percent remaining, 672 h: 84.7% | percent remaining, initial: 100%

COC(=O)C(C)(C)OC=C(C)c1ccc(C)cc1 [Compound 28, (±)-methyl 2-methyl-2-((2-(p-tolyl)prop-1-en-1-yl)oxy)propanoatemethyl]
rate of hydrolysis / hydrolytic stability compared to corresponding enol ethers prepared from alkyl alcohols: Slower rates of hydrolysis | percent remaining, 24 h: 99.3% | percent remaining, 48 h: 98.5% | percent remaining, 72 h: 98.5% | percent remaining, 168 h: 96.2% | percent remaining, 336 h: 92.1% | percent remaining, 504 h: 89.7% | percent remaining, 672 h: 85.8% | percent remaining, initial: 100%

CC/C=C\CCOC=Cc1ccc(OC)cc1 [Compound 51, 1-(2-(((Z)-hex-3-en-1-yl)oxy)vinyl)-4-methoxybenzene, reference compound]
percent remaining, 24 h: 89.1% | percent remaining, 48 h: 80.2% | percent remaining, 72 h: 72.4% | percent remaining, 168 h: 52.5% | percent remaining, 336 h: 29.1% | percent remaining, 504 h: 14.6% | percent remaining, 672 h: 10.1% | percent remaining, initial: 100% | enol ether remained after 504 h (21 days): 14.6%
